Data from PubChem BioAssay (NCI).
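Step 1: Grow cells in 96-well plates. Step 2: Expose to compound for 48 hours at 5 concentrations. Step 3: Interpolate endpoints linearly; if unreached, use highest concentration. TGI denotes the concentration required for complete inhibition of growth.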

What was measured:
Experiment in all cases: NCI tumour cell line growth inhibition, 48 h
[1] = tested on: HL-60(TB) leukemia
[2] = tested on: HOP-92 NSCLC
[3] = tested on: IGROV1 ovarian
[4] = tested on: MDA-MB-435
[5] = tested on: NCI-H522 lung
[6] = tested on: RPMI-8226 leukemia
[7] = tested on: SF-295 CNS
[8] = tested on: SN12C renal
[9] = tested on: SR leukemia
[10] = tested on: HS 578T breast

SMILES	TGI [1] [µM]	TGI [2] [µM]	TGI [3] [µM]	TGI [4] [µM]	TGI [5] [µM]	TGI [6] [µM]	TGI [7] [µM]	TGI [8] [µM]	TGI [9] [µM]	TGI [10] [µM]
CN1C(=O)[C@](C)(Cc2ccc(F)cc2)N(C(=O)OC(C)(C)C)[C@@H]1C(C)(C)C	26.2	> 100	> 100	> 100	46.9	49.4	50.7	32.4	43.9	–
COc1cc(C)c(S(=O)(=O)N(CCCN)OCCCN)c(C)c1C	–	–	> 100	> 100	51.7	49	> 100	> 100	38.6	65.2
CC(=O)OCC12C(OC(C)=O)C[C@@H](C)C3(CC(c4ccoc4)OC3=O)C1CCC(OC(C)=O)C21CO1 (stereo partly drawn)	> 100	> 100	> 100	> 100	> 100	> 100	> 100	> 100	–	> 100
CC(=O)c1c2c(cc3c1CCC3)CCC2	> 100	–	> 100	> 100	> 100	> 100	> 100	> 100	> 100	> 100
CN(C)/C=C/C(=O)c1cccc(C(=O)/C=C/N(C)C)n1	> 100	> 100	> 100	–	> 100	> 100	> 100	> 100	> 100	–
Fc1sc2c(c1F)C1CCC2C1 (stereo not drawn)	–	> 100	> 100	> 100	> 100	87.1	> 100	> 100	–	69.6
CC1CN=C(N(C(=O)Nc2ccccc2)C2CCCCC2)S1 (stereo not drawn)	35.6	–	35.6	–	–	49.7	31.8	31.2	35.1	50
C=C1CC2C[C@H](OS(=O)(=O)c3ccc(C)cc3)C(C1)N2C (stereo partly drawn)	> 100	–	> 100	> 100	> 100	> 100	> 100	> 100	> 100	> 100
O=S1(=O)OCCOS(=O)(=O)C1S(=O)(=O)c1cccc2ccccc12	> 100	> 100	> 100	> 100	–	> 100	> 100	> 100	> 100	–
Oc1[nH]c2ccccc2c1N=NC(=S)NCc1ccccn1	–	18.1	13.9	17.4	14.7	53.9	18	14.5	–	47.7
CC1CC2OC(=N)C1(C#N)C2(C#N)C#N (stereo not drawn)	–	36	51.4	> 100	37.8	48	> 100	33.6	> 100	> 100
O=C(O)CCC(NC(=O)/C(=C/c1ccccc1)NC(=O)c1ccccc1)C(=O)O (stereo not drawn)	> 100	> 100	> 100	> 100	> 100	> 100	> 100	> 100	–	> 100
Cc1nc(C)c(C(=O)NNC(=O)c2ccccc2)cc1C(=O)NNC(=O)c1ccccc1	> 100	> 100	> 10	> 100	> 100	> 100	> 100	> 100	–	> 100
CC1[C@@H]2C[C@@H]3O[C@@]34[C@H]3CCC5Cc6nc7c(nc6C[C@@]5(C)C3(O)CC(=O)[C@@]24CO[C@]12OC(C)(C)CC2O)CC1CC[C@@H]2C3=C[C@H]4O[C@@]5(O[C@@](C)(CO)C[C@@H]5O)C(C)[C@@]4(O)[C@]3(C)[C@@H](O)CC2[C@]1(C)C7 (stereo partly drawn)	0.0305	0.976	> 3.52	–	0.653	> 3.52	0.0164	> 3.52	–	–
C/C(=N/NC(=O)c1ccccc1Nc1ccccc1C(=O)N/N=C(\C)c1ccc(C)cc1)c1ccc(C)cc1	> 100	> 100	> 100	> 100	–	> 100	> 100	> 100	> 100	> 100
O=C(c1cccs1)N(C(=O)N1CCCCC1)c1ccccc1	> 100	–	> 100	> 100	–	> 100	> 100	> 100	–	> 100
CN(C)CC(C)(C)C(=O)/C=C/c1ccccc1	26.7	24.5	59.7	–	23	56.6	33.2	33.7	–	–
COC1OC2COC(c3ccccc3)OC2C(OC(=S)c2ccccc2)C1O (stereo not drawn)	–	> 100	> 100	22.8	–	> 100	> 100	> 100	> 100	> 100
CC1C/C(=C\c2ccc(O)c(O)c2)C(=O)/C(=C/c2ccc(O)c(O)c2)C1 (stereo not drawn)	8.42	18.7	19.8	9.74	3.58	–	27.7	20.4	14	24.9
Cn1c(-c2cccs2)cc(-c2ccsc2)c1-c1ccsc1	–	> 100	> 100	> 100	> 100	–	> 100	> 100	> 100	> 100
CC(=O)c1nc(C#N)c(N)o1	–	> 100	> 100	> 100	> 100	> 100	> 100	> 100	–	> 100
NC(=O)c1nnc2c(F)cccc2c1N	> 100	–	> 100	> 100	> 100	> 100	> 100	> 100	> 100	> 100
O=C(N(C1=CCCC1)N(c1ccccc1)c1ccccc1)C(F)(F)F	46.8	33.9	–	50.4	25.3	–	77	78.7	90.4	–
N#Cc1c(NC(=S)Nc2ccccc2)sc2c1CCCC2	> 100	–	> 100	> 100	> 100	> 100	> 100	> 100	> 100	> 100
